One assay has as its target T1, recombinant human KDM5B (Homo sapiens, UniProt Q9UGL1).
T1 sequence (Q9UGL1 374-755 limits assumed): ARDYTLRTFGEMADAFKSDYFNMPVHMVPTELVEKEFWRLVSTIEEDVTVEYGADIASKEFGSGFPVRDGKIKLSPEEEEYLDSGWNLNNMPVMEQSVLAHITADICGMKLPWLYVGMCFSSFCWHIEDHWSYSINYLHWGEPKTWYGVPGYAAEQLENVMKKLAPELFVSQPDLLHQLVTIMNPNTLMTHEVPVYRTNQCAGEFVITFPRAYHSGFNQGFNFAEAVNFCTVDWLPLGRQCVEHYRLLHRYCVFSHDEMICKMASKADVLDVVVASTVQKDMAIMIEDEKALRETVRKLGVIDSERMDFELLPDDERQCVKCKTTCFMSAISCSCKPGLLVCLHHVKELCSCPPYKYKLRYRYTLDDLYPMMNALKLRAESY
Briefly: 14CO2 capture enzymatic assay (decarboxylation of [1-14C] αKG), KDM5B. The class given is biochemical. Particulars: 10 μM [1-14C] αKG, 90 μM non-labeled αKG, 50 μM peptide substrate, 37° C., 1 hour, final 1% DMSO. The method in brief:
(§1)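 Truncated recombinant human KDM5B (H3K4me3 peptide) or KDM4A (H3K9me3 peptide), 50 μM peptide, with 10 μM [1-14C]αKG plus 90 μM unlabeled αKG, 10 μM Fe(SO4), 2 mM ascorbate in pH 7.4 HEPES, 1 h at 37 °C, 1% DMSO. Released 14CO2 trapped on Ba(OH)2 filter; IC50 by non-linear fit.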

The target of another assay is T2, recombinant human KDM4A (Homo sapiens, UniProt O75164).
T2 construct: made in house
T2 sequence (O75164 1-359 limits assumed): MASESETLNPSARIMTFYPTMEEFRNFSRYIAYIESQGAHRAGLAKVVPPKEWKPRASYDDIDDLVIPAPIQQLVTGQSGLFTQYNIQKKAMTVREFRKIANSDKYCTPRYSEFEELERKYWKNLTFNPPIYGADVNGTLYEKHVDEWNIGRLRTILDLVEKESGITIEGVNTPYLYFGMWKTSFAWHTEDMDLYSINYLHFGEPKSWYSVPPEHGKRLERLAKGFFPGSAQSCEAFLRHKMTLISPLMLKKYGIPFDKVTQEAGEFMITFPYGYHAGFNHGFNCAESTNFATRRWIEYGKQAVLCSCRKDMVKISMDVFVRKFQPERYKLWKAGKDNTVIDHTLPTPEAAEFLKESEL
Description: 14CO2 capture enzymatic assay (decarboxylation of [1-14C] αKG), KDM4A. The format is biochemical. To be noted: 10 μM [1-14C] αKG, 90 μM non-labeled αKG, 50 μM peptide substrate, 37° C., 1 hour, final 1% DMSO. The gist of the method:
as §1

For the compound `CCc1ccccc1-c1cc(C#N)c(O)c(C(=O)CCC(=O)O)n1` [Example 85, 4-[4-Cyano-6-(2-ethyl-phenyl)-3-hydroxy-pyridin-2-yl]-4-oxo-butyric acid], the values for the IC50 at recombinant human KDM5B and at recombinant human KDM4A were 450 nM and > 40000 nM, respectively.

Take `Cc1cccc(Cc2cc(C#N)c(O)c(C(=O)CCC(=O)O)n2)c1` [Example 37, 4-[4-Cyano-3-hydroxy-6-(3-methyl-benzyl)-pyridin-2-yl]-4-oxo-butyric acid]: the concentration for half-maximal inhibition (IC50) on recombinant human KDM5B is 60 nM; on recombinant human KDM4A, > 40000 nM.

As to `N#Cc1cc(-c2cccc3ncccc23)nc(C(=O)CCC(=O)O)c1O` [Example 112, 4-(4-Cyano-3-hydroxy-6-quinolin-5-yl-pyridin-2-yl)-4-oxo-butyric acid], the half-maximal inhibitory concentration (IC50) on recombinant human KDM5B is 390 nM; on recombinant human KDM4A it was > 40000 nM.

As to `Cc1cccc(C)c1Cc1cc(C(=O)CCC(=O)O)c(O)c(C#N)n1` [Example 133, 4-[2-Cyano-6-(2,6-dimethyl-benzyl)-3-hydroxy-pyridin-4-yl]-4-oxo-butyric acid], the half-inhibitory concentration (IC50) is 1400 nM at recombinant human KDM5B and > 40000 nM at recombinant human KDM4A.

Turning to `Cc1cc(C)c(Cc2cc(C#N)c(O)c(C(=O)CCC(=O)O)n2)c(C)c1` [Example 124, 4-[4-Cyano-3-hydroxy-6-(2,4,6-trimethyl-benzyl)-pyridin-2-yl]-4-oxo-butyric acid], the values for the IC50 at recombinant human KDM5B and at recombinant human KDM4A were 160 nM and > 40000 nM, respectively.

In the case of `N#Cc1cc(-c2ccc(Cl)c3ccccc23)nc(C(=O)CCC(=O)O)c1O` [Example 110, 4-[6-(4-Chloro-naphthalen-1-yl)-4-cyano-3-hydroxy-pyridin-2-yl]-4-oxo-butyric acid], the results for the IC50 at recombinant human KDM5B and on recombinant human KDM4A were 270 nM and > 40000 nM, respectively.

On to `N#Cc1cc(-c2cccc(-c3ccccc3)c2)nc(C(=O)CCC(=O)O)c1O` [Example 74, 4-(6-Biphenyl-3-yl-4-cyano-3-hydroxy-pyridin-2-yl)-4-oxo-butyric acid], for which the IC50 at recombinant human KDM5B was 60 nM; on recombinant human KDM4A, > 40000 nM.

On to `Cc1cc(Cl)c(Cc2cc(C#N)c(O)c(C(=O)CCC(=O)O)n2)c(Cl)c1` [Example 127, 4-[4-Cyano-6-(2,6-dichloro-4-methyl-benzyl)-3-hydroxy-pyridin-2-yl]-4-oxo-butyric acid], for which the values for the IC50 at recombinant human KDM5B and at recombinant human KDM4A were 60 nM and > 40000 nM, respectively.

Regarding `N#Cc1cc(Cc2cc(Cl)ccc2Cl)nc(C(=O)CCC(=O)O)c1O` [Example 63, 4-[4-Cyano-6-(2,5-dichloro-benzyl)-3-hydroxy-pyridin-2-yl]-4-oxo-butyric acid], the results for the IC50 at recombinant human KDM5B and at recombinant human KDM4A were 240 nM and 36000 nM, respectively.

In the case of `N#Cc1cc(Cc2c(F)cccc2F)nc(C(=O)CCC(=O)O)c1O` [Example 53, 4-[4-Cyano-6-(2,6-difluoro-benzyl)-3-hydroxy-pyridin-2-yl]-4-oxo-butyric acid], the IC50 is 250 nM at recombinant human KDM5B and > 40000 nM on recombinant human KDM4A.

With `O=C(O)CCC(=O)c1nc(Br)cc(Br)c1O` [Example 1, 4-(4,6-Dibromo-3-hydroxy-pyridin-2-yl)-4-oxo-butyric acid], the IC50 on recombinant human KDM5B was 450 nM; on recombinant human KDM4A, 36000 nM.

Regarding `N#Cc1cc(Cc2ccccc2)cc(C(=O)CCC(=O)O)c1O` [Example 117, 4-(5-Benzyl-3-cyano-2-hydroxy-phenyl)-4-oxo-butyric acid], the IC50 on recombinant human KDM5B is 280 nM; at recombinant human KDM4A it was > 40000 nM.

For `Cc1c(F)cccc1-c1cc(C#N)c(O)c(C(=O)CCC(=O)O)n1` [Example 80, 4-[4-Cyano-6-(3-fluoro-2-methyl-phenyl)-3-hydroxy-pyridin-2-yl]-4-oxo-butyric acid], the IC50 was 390 nM on recombinant human KDM5B and > 40000 nM at recombinant human KDM4A.

As for `N#Cc1cc(Cc2ccccc2)nc(C(=O)CCC(=O)O)c1O` [Example 10, 4-(6-Benzyl-4-cyano-3-hydroxy-pyridin-2-yl)-4-oxo-butyric acid], the IC50 at recombinant human KDM5B was 160 nM; at recombinant human KDM4A, > 40000 nM.

Turning to `N#Cc1cc(Cc2cccc(Cl)c2)nc(C(=O)CCC(=O)O)c1O` [Example 18, 4-[6-(3-Chloro-benzyl)-4-cyano-3-hydroxy-pyridin-2-yl]-4-oxo-butyric acid], the values for the concentration for half-maximal inhibition (IC50) on recombinant human KDM5B and at recombinant human KDM4A were 100 nM and > 40000 nM, respectively.

In the case of `Cc1cccc(-c2cc(C#N)c(O)c(C(=O)CCC(=O)O)n2)c1Cl` [Example 101, 4-[6-(2-Chloro-3-methyl-phenyl)-4-cyano-3-hydroxy-pyridin-2-yl]-4-oxo-butyric acid], the concentration for half-maximal inhibition (IC50) on recombinant human KDM5B is 310 nM; on recombinant human KDM4A, > 40000 nM.

As to `N#Cc1cc(Cc2cccc(Cl)c2Cl)nc(C(=O)CCC(=O)O)c1O` [Example 65, 4-[4-Cyano-6-(2,3-dichloro-benzyl)-3-hydroxy-pyridin-2-yl]-4-oxo-butyric acid], the IC50 on recombinant human KDM5B amounted to 180 nM; on recombinant human KDM4A, 14000 nM.

Take `N#Cc1cc(Cc2c(F)ccc(Cl)c2F)nc(C(=O)CCC(=O)O)c1O` [Example 56, 4-[6-(3-Chloro-2,6-difluoro-benzyl)-4-cyano-3-hydroxy-pyridin-2-yl]-4-oxo-butyric acid]: the IC50 at recombinant human KDM5B is 290 nM; at recombinant human KDM4A, > 40000 nM.

For the compound `N#Cc1cc(-c2ccncc2)nc(C(=O)CCC(=O)O)c1O` [Example 12, 4-(4-Cyano-5-hydroxy-[2,4′]bipyridinyl-6-yl)-4-oxo-butyric acid], the IC50 was 130 nM on recombinant human KDM5B and 16000 nM on recombinant human KDM4A.

On to `COc1cccc(Cl)c1Cc1cc(C#N)c(O)c(C(=O)CCC(=O)O)n1` [Example 125, 4-[6-(2-Chloro-6-methoxy-benzyl)-4-cyano-3-hydroxy-pyridin-2-yl]-4-oxo-butyric acid], for which the figures for the IC50 at recombinant human KDM5B and on recombinant human KDM4A were 80 nM and 13000 nM, respectively.

Regarding `Cc1cccc(-c2cc(C#N)c(O)c(C(=O)CCC(=O)O)n2)c1` [Example 72, 4-(4-Cyano-3-hydroxy-6-m-tolyl-pyridin-2-yl)-4-oxo-butyric acid], the half-inhibitory concentration (IC50) is 100 nM at recombinant human KDM5B and > 40000 nM on recombinant human KDM4A.

Turning to `Cc1ccccc1Cc1cc(C#N)c(O)c(C(=O)CCC(=O)O)n1` [Example 36, 4-[4-Cyano-3-hydroxy-6-(2-methyl-benzyl)-pyridin-2-yl]-4-oxo-butyric acid], the IC50 worked out at 70 nM at recombinant human KDM5B and 3700 nM at recombinant human KDM4A.

As to `N#Cc1cc(Cc2ccccc2Cc2ccccc2)nc(C(=O)CCC(=O)O)c1O` [Example 146, 4-[6-(2-Benzyl-benzyl)-4-cyano-3-hydroxy-pyridin-2-yl]-4-oxo-butyric acid], the results for the IC50 on recombinant human KDM5B and on recombinant human KDM4A were 140 nM and 39000 nM, respectively.

Turning to `COc1ccc(Cl)c(-c2cc(C#N)c(O)c(C(=O)CCC(=O)O)n2)c1` [Example 106, 4-[6-(2-Chloro-5-methoxy-phenyl)-4-cyano-3-hydroxy-pyridin-2-yl]-4-oxo-butyric acid], the IC50 on recombinant human KDM5B was 350 nM; at recombinant human KDM4A, > 40000 nM.

As to `N#Cc1cc(C(F)(F)F)nc(C(=O)CCC(=O)O)c1O` [Example 35, 4-(4-Cyano-3-hydroxy-6-trifluoromethyl-pyridin-2-yl)-4-oxo-butyric acid], the results for the IC50 on recombinant human KDM5B and on recombinant human KDM4A were 50 nM and 12000 nM, respectively.

Regarding `N#Cc1cc(Cc2cc(Cl)cc(Cl)c2)nc(C(=O)CCC(=O)O)c1O` [Example 31, 4-[4-Cyano-6-(3,5-dichloro-benzyl)-3-hydroxy-pyridin-2-yl]-4-oxo-butyric acid], the IC50 at recombinant human KDM5B was 230 nM; at recombinant human KDM4A, > 40000 nM.

On to `N#Cc1cc(-c2ccc(F)cc2Cl)nc(C(=O)CCC(=O)O)c1O` [Example 83, 4-[6-(2-Chloro-4-fluoro-phenyl)-4-cyano-3-hydroxy-pyridin-2-yl]-4-oxo-butyric acid], for which the IC50 at recombinant human KDM5B was 250 nM; at recombinant human KDM4A it was > 40000 nM.

As for `N#Cc1cc(Cc2cccc(C(F)(F)F)c2)nc(C(=O)CCC(=O)O)c1O` [Example 29, 4-[4-Cyano-3-hydroxy-6-(3-trifluoromethyl-benzyl)-pyridin-2-yl]-4-oxo-butyric acid], the IC50 at recombinant human KDM5B is 460 nM; on recombinant human KDM4A, > 40000 nM.

For `N#Cc1cc(-c2ccc(C(F)(F)F)cc2)nc(C(=O)CCC(=O)O)c1O` [Example 26, 4-[4-Cyano-3-hydroxy-6-(4-trifluoromethyl-phenyl)-pyridin-2-yl]-4-oxo-butyric acid], the IC50 was 200 nM at recombinant human KDM5B and > 40000 nM at recombinant human KDM4A.

Consider `N#Cc1cc(Cc2c(F)ccc(F)c2F)nc(C(=O)CCC(=O)O)c1O` [Example 57, 4-[4-Cyano-3-hydroxy-6-(2,3,6-trifluoro-benzyl)-pyridin-2-yl]-4-oxo-butyric acid], for which the IC50 came to 270 nM at recombinant human KDM5B and 28000 nM on recombinant human KDM4A.

Regarding `Cc1cccc(-c2cc(C#N)c(O)c(C(=O)CCC(=O)O)n2)c1C` [Example 92, 4-[4-Cyano-6-(2,3-dimethyl-phenyl)-3-hydroxy-pyridin-2-yl]-4-oxo-butyric acid], the IC50 at recombinant human KDM5B was 370 nM; at recombinant human KDM4A, > 40000 nM.

Usually IC50 stands for the concentration at which inhibition is half-maximal.

(Values after patent US20240002344A1, “COMPOUNDS, COMPOSITIONS AND METHODS FOR HISTONE LYSINE DEMETHYLASE INHIBITION” (FibroGen, Inc., priority 2020, published 2024).)
